From patent publication US4193997A, “Thieno[2,3-c] and [3,2-c]pyridines, process for their preparation and therapeutic applications thereof” (Parcor, priority 1977, dated 1980)

Assays:
[1] = test system: A.D.P.-induced blood-platelet aggregation; test: A.D.P.-induced blood-platelet aggregation after oral treatment of rats; type: in vivo, Wistar rats; conditions: Rattus norvegicus, 100 mg/kg oral, 3 hrs after treatment, 10 μM A.D.P. solution, read-out: Percent inhibition of blood-platelet aggregation, A.D.P.
Procedure: (§1) Blood is taken from the jugular vein of Wistar rats. From this citrated blood, and after centrifugation, a plasma containing 600,000±20,000 blood-platelets per mm 3 is reconstituted, which plasma is used in all aggregation determinations.
(§2) 0.4 ml plasma is placed in a siliconized tube provided with a magnet bar which is also siliconized. The tube is introduced into an aggregometer connected to an apparatus which records the optical density variations. When light transmission reaches a stable value, 0.5 ml of a solution containing 10 μM A.D.P. (adenosine diphosphate) is introduced into the tube.
Blood-platelet aggregation then induces an increase of light transmission, followed by a decrease subsequent to the disaggregation stage.
The maximal optical density variation thus determined characterizes the extent of the aggregation.
(§3) Different groups of 20 rats each are used. Each group is orally administered a test derivative, at a dosage of 100 mg/kg. The results obtained during both tests are reported in following Table I which indicates the percent inhibition of blood-platelet aggregation obtained with respect to the reference group, 3 hrs after treatment.

[2] = test system: collagen-induced blood-platelet aggregation; test: Collagen-induced blood-platelet aggregation after oral treatment of rats; type: in vivo, Wistar rats; conditions: Rattus norvegicus, 100 mg/kg oral, 3 hrs after treatment, collagen (bovine tendon extract), read-out: Percent inhibition of blood-platelet aggregation, Collagen
Procedure: as §1, §2
The A.D.P. solution is substituted with a collagen solution (bovine tendon extract).
as §3

Red blood cells [3] = test: Anti-sludge in vitro, "preventive" treatment (protamine sulfate agglomeration of red blood cells); type: cell-based, rats; conditions: for percent agglomerates formed by 5 RBC: controls 6 or 8; for percent agglomerates formed by 4 RBC: controls 9 or 8; for percent agglomerates formed by 3 RBC: controls 13 or 14; for percent agglomerates formed by 2 RBC: controls 17 or 16; for percent free red blood cells (size 1): controls 32 (n°3, 4, 6) or 30 (n°11, 12, 17)
Procedure: (§4) Red blood cells of rats are washed three times and diluted to 1/250 concentration in physiological saline. In each of 5 tubes are placed 0.6 ml of this suspension and 0.2 ml physiological saline. Into each tube is then added, respectively, an amount of 0, 25, 50, 100 and 200 μg of the test derivative contained in 0.2 ml of solution. After incubation for one hour at 37° C., 0.2 ml of a solution containing 125 μg/ml protamine sulfate is added thereto, and the resulting material is further incubated for 0.5 hour at 37° C. The red blood cells of each tube are then examined with a Mallasez cell, and the percent free red blood cells (RBC) and the percent agglomerates formed by 2, 3, 4, 5 . . . RBC are noted.

Red blood cells [4] = test: Anti-sludge in vitro, "curative" procedure (protamine sulfate agglomeration of red blood cells); type: cell-based, rats; conditions: 25 μg; for percent aggregates, size of agglomerates 4: reference tests 11; for percent aggregates, size of agglomerates 3: reference tests 15 or 16; for percent aggregates, size of agglomerates 2: reference tests 19; for percent aggregates, size of agglomerates 1: reference tests 33 (n°3, 4, 6) or 30 (n°11, 12, 17)
Procedure: as §4
The test was repeated according to a "curative" procedure. The red blood cells were first contacted with the protamine sulfate and, after incubation for 0.5 hour, 0.2 ml containing 25 μg of the test derivative were added thereto, after which the material was further incubated for one hour at 37° C.

Work on `O=C1c2ccsc2CCN1Cc1ccccc1Cl` [Derivative n°1, 4-Oxo-5-o.chlorobenzyl-4,5,6,7-tetrahydro-thieno[3,2-c]pyridine] yielded an inhibition at 100 mg/kg [1] of 60.4% and an inhibition at 100 mg/kg [2] of 90%.

For `O=C1c2ccsc2CCN1Cc1ccc(Cl)cc1` [Derivative n°3, 4-Oxo-5-p.chlorobenzyl-4,5,6,7-tetrahydro-thieno[3,2-c]pyridine], the inhibition at 100 mg/kg [1] was 60.8%, the inhibition at 100 mg/kg [2] was 91.4% and the “percent agglomerates formed by 5 RBC” value (Red blood cells [3]; 25 μg per tube) was 1%. For the same compound, the “percent agglomerates formed by 4 RBC” value (Red blood cells [3]; 25 μg per tube) was 2%, the “percent agglomerates formed by 3 RBC” value (Red blood cells [3]; 25 μg per tube) was 10% and the “percent agglomerates formed by 2 RBC” value (Red blood cells [3]; 25 μg per tube) was 24%. For the same compound, the “percent free red blood cells (size 1)” value (Red blood cells [3]; 25 μg per tube) was 63%, the “percent agglomerates formed by 4 RBC” value (Red blood cells [3]; 50 μg per tube) was 2% and the “percent agglomerates formed by 3 RBC” value (Red blood cells [3]; 50 μg per tube) was 7%. The “percent agglomerates formed by 2 RBC” value (Red blood cells [3]; 50 μg per tube) was 25%, the “percent free red blood cells (size 1)” value (Red blood cells [3]; 50 μg per tube) was 66% and the “percent agglomerates formed by 5 RBC” value (Red blood cells [3]; 100 μg per tube) was 1%. The “percent agglomerates formed by 4 RBC” value (Red blood cells [3]; 100 μg per tube) was 1%, the “percent agglomerates formed by 3 RBC” value (Red blood cells [3]; 100 μg per tube) was 6% and the “percent agglomerates formed by 2 RBC” value (Red blood cells [3]; 100 μg per tube) was 15%. The “percent free red blood cells (size 1)” value (Red blood cells [3]; 100 μg per tube) was 77%, the “percent agglomerates formed by 4 RBC” value (Red blood cells [3]; 200 μg per tube) was 1% and the “percent agglomerates formed by 3 RBC” value (Red blood cells [3]; 200 μg per tube) was 1%. For the same compound, the “percent agglomerates formed by 2 RBC” value (Red blood cells [3]; 200 μg per tube) was 10%, the “percent free red blood cells (size 1)” value (Red blood cells [3]; 200 μg per tube) was 88% and the “percent aggregates, size of agglomerates 4” value (Red blood cells [4]) was 1%. The “percent aggregates, size of agglomerates 3” value (Red blood cells [4]) was 5%, the “percent aggregates, size of agglomerates 2” value (Red blood cells [4]) was 13% and the “percent aggregates, size of agglomerates 1” value (Red blood cells [4]) was 81%.

In the case of `O=C1c2sccc2CCN1Cc1ccccc1Cl` [Derivative n°4, 6-o.Chlorobenzyl-7-oxo-4,5,6,7-tetrahydro-thieno[2,3-c]-pyridine], the inhibition at 100 mg/kg [1] is reported as 62.9%, the inhibition at 100 mg/kg [2] is reported as 93.1% and the “percent agglomerates formed by 5 RBC” value (Red blood cells [3]; 25 μg per tube) is reported as 2%. For the same compound, the “percent agglomerates formed by 4 RBC” value (Red blood cells [3]; 25 μg per tube) was 3%, the “percent agglomerates formed by 3 RBC” value (Red blood cells [3]; 25 μg per tube) was 7% and the “percent agglomerates formed by 2 RBC” value (Red blood cells [3]; 25 μg per tube) was 20%. The “percent free red blood cells (size 1)” value (Red blood cells [3]; 25 μg per tube) was 68%, the “percent agglomerates formed by 5 RBC” value (Red blood cells [3]; 50 μg per tube) was 1% and the “percent agglomerates formed by 4 RBC” value (Red blood cells [3]; 50 μg per tube) was 2%. The “percent agglomerates formed by 3 RBC” value (Red blood cells [3]; 50 μg per tube) was 4%, the “percent agglomerates formed by 2 RBC” value (Red blood cells [3]; 50 μg per tube) was 22% and the “percent free red blood cells (size 1)” value (Red blood cells [3]; 50 μg per tube) was 71%. The “percent agglomerates formed by 4 RBC” value (Red blood cells [3]; 100 μg per tube) was 2%, the “percent agglomerates formed by 3 RBC” value (Red blood cells [3]; 100 μg per tube) was 1% and the “percent agglomerates formed by 2 RBC” value (Red blood cells [3]; 100 μg per tube) was 17%. The “percent free red blood cells (size 1)” value (Red blood cells [3]; 100 μg per tube) was 80%, the “percent agglomerates formed by 3 RBC” value (Red blood cells [3]; 200 μg per tube) was 1% and the “percent agglomerates formed by 2 RBC” value (Red blood cells [3]; 200 μg per tube) was 8%. For the same compound, the “percent free red blood cells (size 1)” value (Red blood cells [3]; 200 μg per tube) was 91%, the “percent aggregates, size of agglomerates 5” value (Red blood cells [4]; reference tests 8 or 9) was 1% and the “percent aggregates, size of agglomerates 4” value (Red blood cells [4]) was 1%. The “percent aggregates, size of agglomerates 3” value (Red blood cells [4]) was 3%, the “percent aggregates, size of agglomerates 2” value (Red blood cells [4]) was 17% and the “percent aggregates, size of agglomerates 1” value (Red blood cells [4]) was 78%.

With `O=C(c1ccccc1Cl)N1CCc2sccc2C1=O` [Derivative n°6, 4-Oxo-5-o.chlorobenzoyl-4,5,6,7-tetrahydro-thieno[3,2-c]pyridine] the inhibition at 100 mg/kg [1] was 61.7%, the inhibition at 100 mg/kg [2] was 91.5% and the “percent agglomerates formed by 5 RBC” value (Red blood cells [3]; 25 μg per tube) was 4%. For the same compound, the “percent agglomerates formed by 4 RBC” value (Red blood cells [3]; 25 μg per tube) was 5%, the “percent agglomerates formed by 3 RBC” value (Red blood cells [3]; 25 μg per tube) was 4% and the “percent agglomerates formed by 2 RBC” value (Red blood cells [3]; 25 μg per tube) was 22%. For the same compound, the “percent free red blood cells (size 1)” value (Red blood cells [3]; 25 μg per tube) was 65%, the “percent agglomerates formed by 5 RBC” value (Red blood cells [3]; 50 μg per tube) was 1% and the “percent agglomerates formed by 4 RBC” value (Red blood cells [3]; 50 μg per tube) was 3%. For the same compound, the “percent agglomerates formed by 3 RBC” value (Red blood cells [3]; 50 μg per tube) was 5%, the “percent agglomerates formed by 2 RBC” value (Red blood cells [3]; 50 μg per tube) was 25% and the “percent free red blood cells (size 1)” value (Red blood cells [3]; 50 μg per tube) was 66%. The “percent agglomerates formed by 5 RBC” value (Red blood cells [3]; 100 μg per tube) was 1%, the “percent agglomerates formed by 4 RBC” value (Red blood cells [3]; 100 μg per tube) was 0% and the “percent agglomerates formed by 3 RBC” value (Red blood cells [3]; 100 μg per tube) was 3%. For the same compound, the “percent agglomerates formed by 2 RBC” value (Red blood cells [3]; 100 μg per tube) was 13%, the “percent free red blood cells (size 1)” value (Red blood cells [3]; 100 μg per tube) was 83% and the “percent agglomerates formed by 3 RBC” value (Red blood cells [3]; 200 μg per tube) was 1%. For the same compound, the “percent agglomerates formed by 2 RBC” value (Red blood cells [3]; 200 μg per tube) was 8%, the “percent free red blood cells (size 1)” value (Red blood cells [3]; 200 μg per tube) was 91% and the “percent aggregates, size of agglomerates 4” value (Red blood cells [4]) was 2%. The “percent aggregates, size of agglomerates 3” value (Red blood cells [4]) was 2%, the “percent aggregates, size of agglomerates 2” value (Red blood cells [4]) was 15% and the “percent aggregates, size of agglomerates 1” value (Red blood cells [4]) was 81%.

For `N#Cc1ccccc1CN1CCc2sccc2C1=O` [Derivative n°8, 4-Oxo-5-o.cyanobenzyl-4,5,6,7-tetrahydro-thieno[3,2-c]pyridine], the inhibition at 100 mg/kg [1] was 60.8% and the inhibition at 100 mg/kg [2] was 91%.

With `COC(=O)c1ccccc1CN1CCc2sccc2C1=O` [Derivative n°9, 4-Oxo-5-o,carbomethoxybenzyl-4,5,6,7-tetrahydro-thieno[3,2-c]-pyridine] the inhibition at 100 mg/kg [1] was 61.6% and the inhibition at 100 mg/kg [2] was 90.8%.

`O=C(c1ccccc1Cl)N1CCc2ccsc2C1=O` [Derivative n°10, 6-o.Chlorobenzoyl-7-oxo-4,5,6,7-tetrahydro-thieno[2,3-c]pyridine] gave an inhibition at 100 mg/kg [1] of 60.9% and an inhibition at 100 mg/kg [2] of 92.2%.

`O=C(OCc1ccccc1)C1Cc2sccc2C(=O)N1Cc1ccccc1` (stereo not shown) [Derivative n°13, 4-Oxo-6-benzyloxycarbonyl-5-benzyl-4,5,6,7-tetrahydro-thieno[3,2-c]pyridine] gave an inhibition at 100 mg/kg [1] of 63.4% and an inhibition at 100 mg/kg [2] of 91.9%.

`O=C(O)C1Cc2sccc2C(=O)N1Cc1ccccc1` (stereo not shown) [Derivative n°14, 4-Oxo-6-carboxy-5-benzyl-4,5,6,7-tetrahydro-thieno[3,2-c]-pyridine] was tested, and the inhibition at 100 mg/kg [1] was 60.5% and the inhibition at 100 mg/kg [2] was 93%.

`COc1cc(CN2C(=O)c3ccsc3CC2C(=O)O)cc(OC)c1OC` (stereo not shown) [Derivative n°16, 4-Oxo-6-carboxy-5-(3,4,5-trimethoxy-benzyl)-4,5,6,7-tetrahydro-thieno[3,2-c]pyridine] gave an inhibition at 100 mg/kg [1] of 62.4% and an inhibition at 100 mg/kg [2] of 90.5%.

`O=C1NCC(c2ccccc2)c2ccsc21` (stereo not shown) [Derivative n°18, 4-Phenyl-7-oxo-4,5,6,7-tetrahydro-thieno[2,3-c]pyridine] showed an inhibition at 100 mg/kg [1] of 60.6% and an inhibition at 100 mg/kg [2] of 91.4%.
